Data taken from US5092876A, “Cell attachment peptides derived from amyloid P component” (The United States of America as represented by the …, priority 1989, dated 1992).

Test system: cells
Experiment: Cell attachment assay, peptides/proteins from amyloid P component coated on plates (Table I)
Type: cell-based
Conditions: plates coated with peptide/protein (20 uM); average ± SEM
Procedure: All cell types used were obtained from American Type Culture Collection, Rockville, Md. and were maintained in Dulbecco's modified Eagle's medium (DMEM) supplemented with 10% fetal calf serum (FCS). The cells were grown to approximately 80% confluency in Falcon T75 flasks. For cell attachment assays, cells were washed with PBS (pH 7.4), and then detached from the tissue culture flasks with 0.025% trypsin, 0.025% EDTA.
The cells were sedimented by low speed centrifugation, suspended in serum-free Eagle's minimal essential medium (EMEM) containing 0.05% BSA and used immediately in the cell attachment assays.
Cell attachment was assayed as described by Graf et al., Biochemistry 26, 6896-6900 (1987). 24 well plastic culture plates (Linbro, Flow Laboratories, Inc., Va.) were coated with the desired peptides at 25° C. for 16 h in 0.1M bicarbonate buffer, pH 9.6. Exposed non-specific cell attachment sites were blocked by coating the wells with 3% BSA for 1 h at 25° C. Cells, (1.1×10^5), prepared as described above, were added to each well and incubated at 37° C. for 1 h in a humidified incubator with 5% CO2 --95% air mixture. At the end of incubation, plates were gently washed twice with PBS to remove unattached cells. Attached cells were treated with trypsin and electronically counted. […] Each peptide was tested for cell attachment in six separate experiments.
Tissue culture plates (obtained from Linbro, Flow Laboratories, Inc., Va.) were coated with peptides or proteins at […]. Before coating (a) AP was denatured with 6M Guanidine HCl (GnHCl) for 2 h at 4° C. GnHCl was removed by extensive dialysis against 0.1M bicarbonate buffer, pH 9.6 at 4° C.; (b) AP was heat-denatured at 100° C. for 15 min.; (c) native AP was reduced and the free sulfhydryl groups were blocked by carboxymethylation, and (d) heat-denatured AP was treated as in (c). The values are expressed as the average ± SEM, and are reported hereinbelow in Table I.

In order of falling No. attached cells:
1. Heat-Denatured SAP (b): AP heat-denatured at 100° C. for 15 min.  3926 ± 552
2. GnHCl-Denatured SAP (a): AP denatured with 6M Guanidine HCl for 2 h at 4° C., GnHCl removed by dialysis  3835 ± 424
3. Reduced (heat-denatured SAP)/carboxymethylated (d): heat-denatured AP reduced and carboxymethylated as in (c)  3436 ± 396
4. Native SAP: Amyloid P component isolated from normal human serum, 125 kDa glycoprotein  3125 ± 348
5. Reduced (native)/carboxy-methylated (c): native AP reduced and the free sulfhydryl groups blocked by carboxymethylation  2558 ± 428
